# The kinase profiling compilation of Christmann-Franck et al. (2016)
# Columns and labels:
# Test in all cases: KINOMEscan competition binding
# [1] = target: TSSK1B (human) (UniProt Q9BXA7)
# [2] = target: EPHB1 (human) (UniProt P54762)
# [3] = target: PIM3 (human) (UniProt Q86V86)
# [4] = target: EPHA5 (human) (UniProt P54756)
# [5] = target: FLT4 (human) (UniProt P35916)
# [6] = target: FGFR3 (human), P22607 [G697C]
# [7] = target: MYO3A (human) (UniProt Q8NEV4)
# [8] = target: TAOK2 (human) (UniProt Q9UL54)
# [9] = target: DYRK2 (human) (UniProt Q92630)
# [10] = target: LIMK2 (human) (UniProt P53671)
# Chain of LIMK2 (human) (P53671 whole entry, looked up): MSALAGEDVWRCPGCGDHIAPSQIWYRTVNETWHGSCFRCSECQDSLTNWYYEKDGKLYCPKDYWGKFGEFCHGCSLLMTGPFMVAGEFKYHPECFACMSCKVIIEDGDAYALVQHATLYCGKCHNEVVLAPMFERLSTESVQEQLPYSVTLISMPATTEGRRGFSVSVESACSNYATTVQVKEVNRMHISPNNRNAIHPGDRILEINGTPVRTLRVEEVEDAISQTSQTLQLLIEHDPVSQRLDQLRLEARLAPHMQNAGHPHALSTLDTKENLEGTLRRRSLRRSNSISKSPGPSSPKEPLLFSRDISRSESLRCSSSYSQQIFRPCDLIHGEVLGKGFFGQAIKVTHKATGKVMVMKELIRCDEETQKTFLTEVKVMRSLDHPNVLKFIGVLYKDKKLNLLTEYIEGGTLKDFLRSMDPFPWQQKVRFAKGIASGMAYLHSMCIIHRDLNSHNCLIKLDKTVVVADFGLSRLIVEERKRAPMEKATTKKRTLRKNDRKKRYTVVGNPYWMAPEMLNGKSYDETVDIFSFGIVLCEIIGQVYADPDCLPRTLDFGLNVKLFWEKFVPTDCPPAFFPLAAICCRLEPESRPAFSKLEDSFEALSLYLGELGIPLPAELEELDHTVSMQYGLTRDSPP
# [11] = target: PTK6 (human) (UniProt Q13882)
# [12] = target: PIK3CA (human) (UniProt P42336)
# [13] = target: CDC2L2 (human) (UniProt Q9UQ88)
# [14] = target: TIE1 (human) (UniProt P35590)
# Chain of TIE1 (human) (P35590 whole entry, looked up): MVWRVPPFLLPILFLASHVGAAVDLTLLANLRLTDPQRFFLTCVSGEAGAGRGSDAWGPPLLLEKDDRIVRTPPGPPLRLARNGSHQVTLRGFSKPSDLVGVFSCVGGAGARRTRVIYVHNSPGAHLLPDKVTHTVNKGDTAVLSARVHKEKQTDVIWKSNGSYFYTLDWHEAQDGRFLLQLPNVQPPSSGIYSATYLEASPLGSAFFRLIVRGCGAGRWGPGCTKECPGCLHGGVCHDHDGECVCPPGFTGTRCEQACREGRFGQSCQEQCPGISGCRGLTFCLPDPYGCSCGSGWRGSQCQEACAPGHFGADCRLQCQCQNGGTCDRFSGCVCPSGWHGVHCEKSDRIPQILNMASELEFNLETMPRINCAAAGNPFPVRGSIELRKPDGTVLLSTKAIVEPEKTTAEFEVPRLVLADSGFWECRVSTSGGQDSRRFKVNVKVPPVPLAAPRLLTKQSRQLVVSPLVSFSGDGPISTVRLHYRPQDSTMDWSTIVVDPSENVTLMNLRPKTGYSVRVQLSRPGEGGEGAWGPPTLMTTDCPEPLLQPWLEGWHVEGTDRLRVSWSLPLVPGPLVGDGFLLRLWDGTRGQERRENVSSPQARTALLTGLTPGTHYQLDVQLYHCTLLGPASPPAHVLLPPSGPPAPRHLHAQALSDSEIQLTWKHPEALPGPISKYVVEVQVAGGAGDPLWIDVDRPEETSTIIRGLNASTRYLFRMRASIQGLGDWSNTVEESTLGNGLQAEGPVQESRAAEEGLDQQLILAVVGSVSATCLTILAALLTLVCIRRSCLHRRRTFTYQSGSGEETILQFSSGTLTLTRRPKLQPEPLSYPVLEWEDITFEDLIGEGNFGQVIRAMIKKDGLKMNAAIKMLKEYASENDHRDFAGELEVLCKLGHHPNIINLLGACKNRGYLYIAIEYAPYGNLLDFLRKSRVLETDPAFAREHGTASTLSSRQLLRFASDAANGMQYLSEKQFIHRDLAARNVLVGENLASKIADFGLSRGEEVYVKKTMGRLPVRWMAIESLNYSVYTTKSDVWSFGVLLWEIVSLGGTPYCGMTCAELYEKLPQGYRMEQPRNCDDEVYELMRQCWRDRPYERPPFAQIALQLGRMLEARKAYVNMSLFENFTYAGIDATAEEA
# [15] = target: CDK8 (human) (UniProt P49336)
# [16] = target: ABL1 (human) (UniProt P00519)
# [17] = target: PIK3CG (human) (UniProt P48736)
# [18] = target: RIPK1 (human) (UniProt Q13546)
# [19] = target: PTK2B (human) (UniProt Q14289)
# [20] = target: PAK2 (human) (UniProt Q13177)
# [21] = target: MAP2K2 (human) (UniProt P36507)
# [22] = target: CDKL3 (human) (UniProt Q8IVW4)
# [23] = target: CDK18 (human) (UniProt Q07002)
# [24] = target: MAP4K5 (human) (UniProt Q9Y4K4)
# [25] = target: TEC (human) (UniProt P42680)
# [26] = target: IRAK1 (human) (UniProt P51617)
# [27] = target: MUSK (human) (UniProt O15146)
# [28] = target: CLK2 (human) (UniProt P49760)
# [29] = target: RAF1 (human) (UniProt P04049)
# [30] = target: MYO3B (human) (UniProt Q8WXR4)
# [31] = target: FLT3 (human), P36888 [D835Y]
# [32] = target: ERN1 (human) (UniProt O75460)
# Chain of ERN1 (human) (O75460 whole entry, looked up): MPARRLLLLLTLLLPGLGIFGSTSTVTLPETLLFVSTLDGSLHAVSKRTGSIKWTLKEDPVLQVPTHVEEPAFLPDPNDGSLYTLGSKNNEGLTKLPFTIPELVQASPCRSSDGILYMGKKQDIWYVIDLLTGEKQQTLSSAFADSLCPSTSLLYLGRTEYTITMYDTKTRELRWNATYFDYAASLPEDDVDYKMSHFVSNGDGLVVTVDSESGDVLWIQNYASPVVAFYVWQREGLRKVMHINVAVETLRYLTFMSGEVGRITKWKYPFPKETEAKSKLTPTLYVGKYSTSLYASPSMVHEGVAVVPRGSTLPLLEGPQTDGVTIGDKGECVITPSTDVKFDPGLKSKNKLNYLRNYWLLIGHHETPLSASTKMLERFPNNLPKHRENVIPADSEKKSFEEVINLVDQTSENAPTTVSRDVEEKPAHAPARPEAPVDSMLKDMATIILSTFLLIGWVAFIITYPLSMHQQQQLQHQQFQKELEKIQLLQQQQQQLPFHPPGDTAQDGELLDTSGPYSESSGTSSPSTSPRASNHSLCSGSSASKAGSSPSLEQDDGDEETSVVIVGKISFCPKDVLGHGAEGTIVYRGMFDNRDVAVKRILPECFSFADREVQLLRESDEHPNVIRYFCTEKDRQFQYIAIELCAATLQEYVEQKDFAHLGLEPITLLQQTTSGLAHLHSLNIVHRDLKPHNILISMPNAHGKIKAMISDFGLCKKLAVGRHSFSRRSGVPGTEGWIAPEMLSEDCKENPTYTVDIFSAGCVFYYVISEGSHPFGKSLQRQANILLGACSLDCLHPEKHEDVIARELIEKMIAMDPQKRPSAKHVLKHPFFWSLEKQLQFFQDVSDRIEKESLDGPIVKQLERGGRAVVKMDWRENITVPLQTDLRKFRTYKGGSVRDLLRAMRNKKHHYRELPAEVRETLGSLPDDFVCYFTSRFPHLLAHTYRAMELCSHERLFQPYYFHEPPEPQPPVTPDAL
# [33] = target: MYLK3 (human) (UniProt Q32MK0)
# Chain of MYLK3 (human) (Q32MK0 whole entry, looked up): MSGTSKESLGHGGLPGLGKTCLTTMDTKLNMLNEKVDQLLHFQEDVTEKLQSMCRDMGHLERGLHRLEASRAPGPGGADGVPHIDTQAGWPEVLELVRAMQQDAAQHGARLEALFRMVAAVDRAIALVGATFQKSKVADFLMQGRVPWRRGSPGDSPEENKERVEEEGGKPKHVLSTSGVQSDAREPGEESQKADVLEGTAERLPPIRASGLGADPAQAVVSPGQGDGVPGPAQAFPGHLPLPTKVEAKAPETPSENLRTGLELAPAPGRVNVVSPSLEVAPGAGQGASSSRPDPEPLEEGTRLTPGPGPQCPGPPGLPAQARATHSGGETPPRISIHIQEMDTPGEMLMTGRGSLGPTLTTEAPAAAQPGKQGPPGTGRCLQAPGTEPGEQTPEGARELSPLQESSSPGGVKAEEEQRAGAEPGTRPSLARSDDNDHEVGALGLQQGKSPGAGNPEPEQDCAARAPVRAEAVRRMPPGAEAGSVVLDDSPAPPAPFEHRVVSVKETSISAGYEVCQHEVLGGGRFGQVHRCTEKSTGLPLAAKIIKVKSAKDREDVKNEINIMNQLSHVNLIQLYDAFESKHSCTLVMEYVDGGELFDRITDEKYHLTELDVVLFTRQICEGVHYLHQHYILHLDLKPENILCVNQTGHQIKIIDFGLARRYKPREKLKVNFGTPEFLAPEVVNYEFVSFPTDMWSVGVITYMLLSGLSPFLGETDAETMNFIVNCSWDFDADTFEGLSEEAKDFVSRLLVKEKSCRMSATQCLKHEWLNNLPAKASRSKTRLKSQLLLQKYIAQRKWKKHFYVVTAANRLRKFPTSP
# [34] = target: AXL (human) (UniProt P30530)
# [35] = target: PRKACB (human) (UniProt P22694)
# [36] = target: PIK3CA (human), P42336 [E542K]
# [37] = target: EPHB4 (human) (UniProt P54760)
# [38] = target: NTRK2 (human) (UniProt Q16620)
# [39] = target: RPS6KA2 KD2 (human) (UniProt Q15349)
# [40] = target: CSNK1E (human) (UniProt P49674)
# [41] = target: SIK2 (human) (UniProt Q9H0K1)
# Chain of SIK2 (human) (Q9H0K1 whole entry, looked up): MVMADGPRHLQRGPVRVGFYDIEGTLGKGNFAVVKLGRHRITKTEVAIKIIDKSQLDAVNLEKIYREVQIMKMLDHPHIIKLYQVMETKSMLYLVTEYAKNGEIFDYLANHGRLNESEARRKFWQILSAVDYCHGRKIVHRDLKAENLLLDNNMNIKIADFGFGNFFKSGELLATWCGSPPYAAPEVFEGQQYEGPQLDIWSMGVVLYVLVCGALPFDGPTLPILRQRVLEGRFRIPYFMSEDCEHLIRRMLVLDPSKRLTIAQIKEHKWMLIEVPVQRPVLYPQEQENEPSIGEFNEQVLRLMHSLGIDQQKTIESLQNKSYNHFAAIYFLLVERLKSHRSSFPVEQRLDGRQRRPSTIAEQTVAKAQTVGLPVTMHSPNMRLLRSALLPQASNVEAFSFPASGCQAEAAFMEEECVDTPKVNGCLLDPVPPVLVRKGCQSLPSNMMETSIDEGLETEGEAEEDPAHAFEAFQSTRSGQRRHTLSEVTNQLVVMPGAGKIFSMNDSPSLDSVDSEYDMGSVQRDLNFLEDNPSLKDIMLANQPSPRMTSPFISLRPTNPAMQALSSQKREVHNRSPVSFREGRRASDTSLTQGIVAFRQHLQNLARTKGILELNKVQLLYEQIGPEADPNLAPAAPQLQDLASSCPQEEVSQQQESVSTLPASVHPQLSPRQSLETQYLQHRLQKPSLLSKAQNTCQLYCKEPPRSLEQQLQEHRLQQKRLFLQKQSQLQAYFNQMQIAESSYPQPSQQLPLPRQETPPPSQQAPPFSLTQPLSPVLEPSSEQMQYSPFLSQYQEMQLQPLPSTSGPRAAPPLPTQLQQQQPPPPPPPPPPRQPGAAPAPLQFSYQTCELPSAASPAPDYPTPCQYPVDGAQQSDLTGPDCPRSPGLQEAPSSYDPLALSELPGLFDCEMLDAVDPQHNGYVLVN
smiles,measurement,setting,value
COc1cc2ncnc(Oc3cccc(NC(=O)Nc4cc(C(C)(C)C(F)(F)F)on4)c3)c2cc1OC,Kd,[1],26 µM
same,Kd,[2],0.15 µM
same,Kd,[3],13 µM
same,Kd,[4],0.056 µM
same,Kd,[5],0.0093 µM
same,Kd,[6],3.1 µM
same,Kd,[7],15 µM
same,Kd,[8],1.6 µM
same,Kd,[9],27 µM
same,Kd,[10],3.8 µM
same,Kd,[11],0.2 µM
same,Kd,[12],27 µM
same,Kd,[13],0.17 µM
same,Kd,[14],0.024 µM
same,Kd,[15],1.1 µM
same,Kd,[16],0.0028 µM
same,Kd,[17],30 µM
same,Kd,[18],3.2 µM
same,Kd,[19],6.6 µM
same,Kd,[20],34 µM
same,Kd,[21],8.3 µM
same,Kd,[22],2 µM
same,Kd,[23],1.1 µM
same,Kd,[24],0.029 µM
same,Kd,[25],6 µM
same,Kd,[26],9.6 µM
same,Kd,[27],0.034 µM
same,Kd,[28],21 µM
same,Kd,[29],0.039 µM
same,Kd,[30],6.8 µM
same,Kd,[31],0.23 µM
same,Kd,[32],19 µM
same,Kd,[33],26 µM
same,Kd,[34],2.7 µM
same,Kd,[35],20 µM
same,Kd,[36],27 µM
same,Kd,[37],0.086 µM
same,Kd,[38],1 µM
same,Kd,[39],33 µM
same,Kd,[40],16 µM
same,Kd,[41],24 µM
